These compounds were tested against T1, Streptococcus pneumonia UPPS (Streptococcus pneumoniae serotype 4, UniProt Q97SR4) (assay: Determination of binding to UPPS (inorganic phosphate release, Biomol Green)). Conditions: FPP 3 μM, IPP 16 μM; 20 minutes preincubation with compound.
T1 construct: His-tag (N)
T1 sequence (Q97SR4 1-252): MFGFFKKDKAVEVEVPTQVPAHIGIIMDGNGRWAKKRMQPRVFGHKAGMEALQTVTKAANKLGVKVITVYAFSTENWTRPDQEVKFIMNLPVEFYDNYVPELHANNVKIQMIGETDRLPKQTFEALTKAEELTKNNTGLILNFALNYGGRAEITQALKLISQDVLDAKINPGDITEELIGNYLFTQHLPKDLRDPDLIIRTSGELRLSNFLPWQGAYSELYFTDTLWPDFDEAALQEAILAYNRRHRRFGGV
Format: biochemical
Description: The ability of several of the compounds described herein to bind to UPPS was also tested as follows.
Streptococcus pneumonia UPPS was cloned into pET-15b, expressed and purified as an N-terminal His-tag fusion using affinity chromatography. The working stock of UPPS was prepared by mixing the purified enzyme with liposome made from E. coli total lipids extract (Avanti Polar Lipis, Inc., Alabaster, Ala.). The substrates FPP and IPP and inorganic pyrophosphatase were purchased from Sigma. Biomol Green reagent was from Biomol International (Plymouth Meeting, Pa.). All other chemicals were from Sigma at the highest grade.
For testing a compound, UPPS was first incubated with the compound at desired concentrations for 20 minutes in the UPPS reaction buffer that contained 100 mM Tris-HCl, pH 7.3, 50 mM KCl, 1 mM MgCl2, 0.01% Triton X-100, and 20 μg/mL BSA. The reaction was then initiated by the addition of a mixture of FPP, IPP, and E. coli […] made in the same UPPS reaction buffer. The final concentrations for FPP and IPP were 3 μM and 16 μM, respectively. The inorganic phosphate generated in the reactions was then quantified with Biomol Green reagent, which was then used to determine the rate of the reaction and the inhibitory activity of the compound.
For example, the results of the binding assay for several compounds are shown the table below: […]

Row | IC50 [µM] | Compound
1 | 0.01 to 10 | CCN1CCN(c2ccc(NC(=O)C3=C(O)C(CC(C)C)NC3=O)cc2)CC1 (centres unmarked) [compound 148]
2 | 0.01 to 10 | CCCCCCOc1ccc(NC(=O)C2=C(O)C(CCc3ccccc3)NC2=O)cc1 (centres unmarked) [compound 77]
3 | 0.01 to 10 | O=C(Nc1ccc(-c2ccccc2)cc1)C1=C(O)CC(Cc2ccccc2)NC1=O (centres unmarked) [compound 187]
4 | 0.01 to 10 | CC(C)CC1NC(=O)C(C(=O)NCc2ccc(-c3cccs3)cc2)=C1O (centres unmarked) [compound 36]
5 | > 50 | O=C(NC1CCCCC1)C1=C(O)C(Cc2ccccc2)NC1=O (centres unmarked) [compound 23]
6 | 0.01 to 10 | O=C(Nc1ccc(N2CCCCC2)cc1)C1=C(O)CC(c2ccccc2)NC1=O (centres unmarked) [compound 168]
7 | 0.01 to 10 | O=C(Nc1ccc(-c2ccccc2)cc1)C1=C(O)C(c2ccccc2)NC1=O (centres unmarked) [compound 16]
8 | 0.01 to 10 | O=C(Nc1ccc(-n2cccn2)cc1)C1=C(O)CC(c2ccccc2)NC1=O (centres unmarked) [compound 181]
9 | 0.01 to 10 | O=C(Nc1ccc(Nc2ccccc2)cc1)C1=C(O)C(CC2CCCCC2)NC1=O (centres unmarked) [compound 103]
10 | 10 to 50 | O=C(Nc1ccc(N2CCOCC2)cc1)C1=C(O)C(c2ccccc2)NC1=O (centres unmarked) [compound 13]
11 | 10 to 50 | CCC1C(O)=C(C(=O)Nc2ccc(C3CCCCC3)cc2)C(=O)N1C (centres unmarked) [compound 15]
12 | 0.01 to 10 | CC(C)CC1NC(=O)C(C(=O)Nc2cccc(Oc3ccccc3)c2)=C1O (centres unmarked) [compound 70]
13 | 0.01 to 10 | O=C(Nc1ccc(-c2ccccc2)cc1)C1=C(O)C(c2ccccc2)NC1=O (centres unmarked) [compound 14]
14 | 0.01 to 10 | O=C1NCC(CC2CCCCC2)C(O)=C1C(=O)Nc1ccc(-n2ccnc2)cc1 (centres unmarked) [compound 221]
15 | 0.01 to 10 | CC(C)CC1NC(=O)C(C(=O)Nc2ccc(Nc3ccccc3)cc2)=C1O (centres unmarked) [compound 104]
16 | 0.01 to 10 | O=C(Nc1ccc(C(F)(F)F)cc1)C1=C(O)CC(c2ccccc2)NC1=O (centres unmarked) [compound 167]
17 | 0.01 to 10 | O=C(Nc1ccc(-n2cccn2)cc1)C1=C(O)CC(C2CCCCC2)NC1=O (centres unmarked) [compound 198]
18 | 0.01 to 10 | Cc1ccc2nc(-c3ccc(NC(=O)C4=C(O)C(c5ccccc5)NC4=O)cc3)sc2c1 (centres unmarked) [compound 6]
19 | 0.01 to 10 | O=C(Nc1ccc(-c2ccccc2)cc1)C1=C(O)CC(c2ccccc2)NC1=O (centres unmarked) [compound 169]

Row | IC50 [µM] | Compound
20 | 0.01 to 10 | CC(C)CC1NC(=O)C(C(=O)Nc2ccc(Oc3nc4ccccc4s3)cc2)=C1O (centres unmarked) [compound 126]
21 | 0.01 to 10 | O=C(Nc1ccc(S(=O)(=O)c2ccccc2)cc1)C1=C(O)CC(C2CCCCC2)NC1=O (centres unmarked) [compound 206]
22 | 0.01 to 10 | O=C(Nc1ccc(N2CCCCC2)cc1)C1=C(O)C(c2ccccc2)NC1=O (centres unmarked) [compound 7]
23 | 0.01 to 10 | O=C(Nc1ccc(Oc2ncc(C(F)(F)F)cc2Cl)cc1)C1=C(O)C(Cc2ccccc2)NC1=O (centres unmarked) [compound 9]
24 | 0.01 to 10 | O=C(Nc1ccc(C2CCCCC2)cc1)C1=C(O)CC(C2CCCCC2)NC1=O (centres unmarked) [compound 185]
25 | 0.01 to 10 | O=C(Nc1cccc(Oc2ccccc2)c1)C1=C(O)C(CC2CCCCC2)NC1=O (centres unmarked) [compound 49]
26 | 0.01 to 10 | CCCCCCOc1ccc(NC(=O)C2=C(O)C(CC(C)C)NC2=O)cc1 (centres unmarked) [compound 52]
27 | 10 to 50 | CC(C)CC1CC(O)=C(C(=O)Nc2ccc(S(=O)(=O)c3ccccc3)cc2)C(=O)N1 (centres unmarked) [compound 202]
28 | 0.01 to 10 | O=C(Nc1ccc(C2CCCCC2)cc1)C1=C(O)C(c2ccccc2)NC1=O (centres unmarked) [compound 116]
29 | 0.01 to 10 | COc1ccc(-c2nc(NC(=O)C3=C(O)CC(Cc4ccccc4)NC3=O)nn2-c2ccc(CO)cc2)cc1 (centres unmarked) [compound 177]
30 | 0.01 to 10 | CC(C)CC1NC(=O)C(C(=O)Nc2ccc(Oc3ccccc3)cc2)=C1O (centres unmarked) [compound 123]
31 | 0.01 to 10 | O=C(Nc1ccc(Cc2ccccc2)cc1)C1=C(O)C(Cc2ccccc2)NC1=O (centres unmarked) [compound 10]
32 | 10 to 50 | Cc1ccc2nc(-c3ccc(NC(=O)C4=C(O)C(Cc5ccccc5)NC4=O)cc3)sc2c1 (centres unmarked) [compound 4]
33 | 0.01 to 10 | CC(C)CC1CC(O)=C(C(=O)Nc2ccc(OC(F)(F)F)cc2)C(=O)N1 (centres unmarked) [compound 183]
34 | 0.01 to 10 | O=C(Nc1ccc(OC2CCCCC2)cc1)C1=C(O)CC(c2ccccc2)NC1=O (centres unmarked) [compound 166]
35 | 0.01 to 10 | CC(C)CC1NC(=O)C(C(=O)Nc2ccc(-c3ccccc3)cc2)=C1O (centres unmarked) [compound 81]
36 | 0.01 to 10 | O=C(Nc1ccc(Oc2ccccc2)cc1)C1=C(O)C(CCc2ccccc2)NC1=O (centres unmarked) [compound 86]
37 | 0.01 to 10 | COc1cccc(NC(=O)C2=C(O)C(c3ccccc3)NC2=O)c1 (centres unmarked) [compound 12]
38 | 0.01 to 10 | O=C(Nc1ccc(-c2ccccc2)cc1)C1=C(O)C(Cc2c[nH]cn2)NC1=O (centres unmarked) [compound 113]

Row | IC50 [µM] | Compound
39 | 0.01 to 10 | N#Cc1ccc(-c2ccc(NC(=O)C3=C(O)C(Cc4ccccc4)NC3=O)cc2)cc1 (centres unmarked) [compound 66]
40 | 0.01 to 10 | O=C(Nc1ccc(C2CCCCC2)cc1)C1=C(O)C(Cc2ccccc2)NC1=O (centres unmarked) [compound 5]
41 | 0.01 to 10 | O=C(Nc1ccc(Oc2ccccc2)cc1)C1=C(O)CC(C2CCCCC2)NC1=O (centres unmarked) [compound 189]
42 | > 50 | CC1CC(O)=C(C(=O)Nc2ccc(Oc3ccccc3)cc2)C(=O)N1 (centres unmarked) [compound 223]
43 | 0.01 to 10 | N#Cc1ccccc1Oc1cccc(NC(=O)C2=C(O)C(c3ccccc3)NC2=O)c1 (centres unmarked) [compound 8]
44 | 0.01 to 10 | COc1ccc(NC(=O)C2=C(O)CC(c3ccccc3)NC2=O)cc1 (centres unmarked) [compound 170]
45 | 0.01 to 10 | O=C(Nc1ccc(C2CCCCC2)cc1)C1=C(O)CN(Cc2ccccc2)C1=O [compound 19]
46 | 0.01 to 10 | CC(C)CC1CC(O)=C(C(=O)Nc2ccc(C3CCCCC3)cc2)C(=O)N1 (centres unmarked) [compound 182]
47 | 0.01 to 10 | O=C(Nc1ccc(N2CCCCC2)cc1)C1=C(O)C(CCc2ccccc2)NC1=O (centres unmarked) [compound 143]
48 | 0.01 to 10 | O=C(Nc1ccc(N2CCCCC2)cc1)C1=C(O)CC(Cc2ccccc2)NC1=O (centres unmarked) [compound 174]
49 | 0.01 to 10 | O=C(Nc1cccc(Oc2ccccc2)c1)C1=C(O)C(CCc2ccccc2)NC1=O (centres unmarked) [compound 80]
50 | 10 to 50 | O=C(NCCSCc1c(Cl)cccc1Cl)C1=C(O)C(Cc2ccccc2)NC1=O (centres unmarked) [compound 54]
51 | 0.01 to 10 | O=C(Nc1ccc(N2CCCCC2)cc1)C1=C(O)C(CCc2ccccc2)NC1=O (centres unmarked) [compound 97]
52 | 0.01 to 10 | O=C(Nc1ccc(C2CCCCC2)cc1)C1=C(O)C(c2ccccc2)NC1=O (centres unmarked) [compound 11]
53 | 0.01 to 10 | O=C(Nc1ccc(C2CCCCC2)cc1)C1=C(O)CC(c2ccccc2)NC1=O (centres unmarked) [compound 164]
54 | 0.01 to 10 | CC(C)CC1CC(O)=C(C(=O)Nc2ccc(-n3cccn3)cc2)C(=O)N1 (centres unmarked) [compound 192]
55 | > 50 | O=C(Nc1ccc(CO)cc1)C1=C(O)C(Cc2ccccc2)NC1=O (centres unmarked) [compound 22]
56 | 0.01 to 10 | O=C(Nc1ccc(C2CCCCC2)cc1)C1=C(O)C(c2ccccc2)NC1=O (centres unmarked) [compound 56]

— patent US20090203694A1, “INHIBITORS OF UNDECAPRENYL PYROPHOSPHATE SYNTHASE” (priority 2006, published 2009)
